The subject of experiment [1] is CD3+CD4+ lymphocytes in PBMC cultures from HIV-1 infected donors. Nature of the experiment: In vitro lymphocyte subset activation in PBMC cultures, CD69 on CD4+ lymphocytes (Example 207). The class given is cell-based, human. To be noted: 24 hours; for CD69 Expression on CD3+CD4+ Lymphocytes, Mean Maximum Expression Background Subtracted: mean of donors 120-123; for CD69 Expression on CD3+CD4+ Lymphocytes, Maximum Expression (Actual %) / CD69 Expression on CD3+CD4+ Lymphocytes, Maximum Expression Background Subtracted: per donor, PBMC from HIV-1 infected donors. The protocol: (§1) Total PBMC cultures were treated with various concentrations of the identified TLR7 modulating compounds (Compounds of Example 4 and Example 49) for 24 hours. At the end of the incubation period, total PBMC were harvested and stained with antibodies conjugated to specific fluorophores to delineate human CD4 lymphocytes (CD3+CD4+CD8−) or CD8 lymphocytes (CD3+CD8+CD4-) and co-expressing the early activation marker CD69. Cells were analyzed by flow cytometry and data collected on an LSR FortessaX20 instrument (BD Biosciences).

For experiment [2], the system named is CD3+CD8+ lymphocytes in PBMC cultures from healthy and HIV-1 infected donors. As to the kind of experiment: In vitro lymphocyte subset activation in PBMC cultures, CD69 on CD8+ lymphocytes (Example 207). To be noted: 24 hours; for CD69 Expression on CD3+CD8+ Lymphocytes, Mean Maximum Expression Background Subtracted: mean of donors 120-123; for CD69 Expression on CD3+CD8+ Lymphocytes, Maximum Expression (Actual %) / CD69 Expression on CD3+CD8+ Lymphocytes, Maximum Expression Background Subtracted: per donor, PBMC cultures. It is filed as cell-based, human. The protocol:
as §1

Experiment [3] concerns HIV-1 expression in PBMC cultures from HIV-1 infected donors on cART. As to the kind of experiment: Induced HIV-1 expression in PBMC cultures from HIV-1 infected donors on cART (Example 208). The class given is cell-based, human. To be noted: for fold induction at 0.01 µM / fold induction at 0.1 µM / fold induction at 0.156 µM / fold induction at 1 µM / fold induction at 2.5 µM / fold induction at 10 µM: Human immunodeficiency virus 1, PBMC; for fold induction at 0.01 µM: read-out: Fold HIV-1 Induction, Geometric Mean, 0.01 μM; for fold induction at 0.01 µM / fold induction at 0.156 µM / fold induction at 2.5 µM: donors 152-155; for fold induction at 0.1 µM: read-out: Fold HIV-1 Induction, Geometric Mean, 0.1 μM; for fold induction at 0.1 µM / fold induction at 1 µM: donors 122, 124-128; for fold induction at 0.156 µM: read-out: Fold HIV-1 Induction, Geometric Mean, 0.156 μM; for fold induction at 1 µM: read-out: Fold HIV-1 Induction, Geometric Mean, 1 μM; for fold induction at 2.5 µM: read-out: Fold HIV-1 Induction, Geometric Mean, 2.5 μM; for fold induction at 10 µM: read-out: Fold HIV-1 Induction, Geometric Mean, 10 μM, donors 124-127; for patients whose cultures showed two-fold or higher activation over the DMSO control: 4 to 5 days, with elvitegravir and efavirenz 100 nM each. The protocol: Isolated PBMCs were treated with various concentrations (0.1, 1, and 10 μM) of the TLR7 modulating compounds (compounds of Example 4 and Example 49) or dimethyl sulfoxide (DMSO) treated (vehicle control) for 4 to 5 days. The cultures were maintained in the presence of antivirals (elvitegravir and efavirenz at 100 nM each) to prevent viral spread and amplification in order to measure initial virus production (latency reversal) created by the TLR7 modulating compounds. At the end of the incubation period cell-free culture supernatants were harvested and HIV-1 RNA levels were quantified by the COBAS® AmpliPrep/COBAS® TaqMan HIV-1 Test, v2.0 (Roche).
Using the method described above in Example 208, HIV-1 expression in PBMC cultures derived from four additional HIV-1 infected donors on cART were tested in the presence of the compounds of Examples 4, 29, 120, 121, 122, 123, 124, resiquimod, and imiquimod.

In experiment [4] the test system is HIV-1BaL. Nature of the experiment: Antiviral activity on in vitro HIV-1 infected PBMC cultures, Gag p24 ELISA (Example 209). It is filed as cell-based. As to conditions: Human immunodeficiency virus 1, 144 h, PHA-stimulated human PBMC infected with HIV-1BaL, six days with IL-2, Gag p24. As for the experimental part: Antiretroviral activity was assessed by testing the TLR7 modulating compounds (Compounds of Example 4 and Example 49) in total human PBMC cultures that were first treated with mitogen (phytohemogglutinin A) for two days prior to infection with HIV-1BaL. Infected cells were cultured in the presence of interleukin-2 and various concentrations of the TLR7 modulating compounds or the nucleoside analog HIV-1 reverse transcriptase inhibitor azidothymidine (AZT, positive control) for six days. At the end of the incubation period, cell-free culture supernatants were harvested and antiviral activity determined by measuring production of HIV-1 Gag p24 by commercially available ELISA kits.
In general terms: In an ELISA, binding on a coated surface is turned into a signal by an enzyme label.

[5] abbreviates: at least 8 independent donors, read-out: Range EC50.
Where [6] appears, read: mean ± SD from at least 8 independent donors, read-out: Mean EC50.

Values joined by “and” are separate entries in the source; they are usually repeats but may differ in a detail not shown here. Equal entries are not always repeated. Where two headings read alike, the source gives them in different places.

By EC50 is commonly meant the concentration at which the effect is half-maximal.

As for `CCCCOc1nc(N)c2c(n1)N(Cc1ccc(CN3CCCC3)cc1)CC(=O)N2` [Example 4], in experiment [1], the “CD69 Expression on CD3+CD4+ Lymphocytes, Mean Maximum Expression Background Subtracted” value is on record as 22%; the “CD69 Expression on CD3+CD4+ Lymphocytes, Maximum Expression (Actual %)” value is 57% and 41% and 26% and 24%; the “CD69 Expression on CD3+CD4+ Lymphocytes, Maximum Expression Background Subtracted” value is 19% and 21% and 25% and 24%. Besides, in experiment [2], the “CD69 Expression on CD3+CD8+ Lymphocytes, Mean Maximum Expression Background Subtracted” value was 32%; the “CD69 Expression on CD3+CD8+ Lymphocytes, Maximum Expression (Actual %)” value is 60% and 44% and 35% and 32%; the “CD69 Expression on CD3+CD8+ Lymphocytes, Maximum Expression Background Subtracted” value was 36% and 30% (2×) and 33%. In addition, the “Donors with ≥2-fold HIV-1 Induction” value in experiment [3] (0.01 μM, Tables 7-11) was 4 of 4. Moreover, the “Donors with ≥2-fold HIV-1 Induction” value in experiment [3] (0.1 μM, Table 6) is given as 4 of 6. Besides, in experiment [3] (0.156 μM, Tables 7-11), the “Donors with ≥2-fold HIV-1 Induction” value is 4 of 4. Besides, the “Donors with ≥2-fold HIV-1 Induction” value in experiment [3] (1 μM, Table 6) is given as 3 of 6. Besides, the “Donors with ≥2-fold HIV-1 Induction” value in experiment [3] (2.5 μM, Tables 7-11) is listed as 4 of 4. Further, in experiment [3] (10 μM, Table 6), the “Donors with ≥2-fold HIV-1 Induction” value was 3 of 4. Besides, in experiment [3] (Tables 7-11), the fold induction at 0.01 µM came out at 4.3, the fold induction at 0.156 µM was determined as 5.3 and the fold induction at 2.5 µM was determined as 4. Moreover, in experiment [3] (Table 6), the fold induction at 0.1 µM was 2, the fold induction at 1 µM stood at 1.6 and the fold induction at 10 µM stood at 3.9. Besides, the EC50 in experiment [4] (setting [5]) is 0.8 to 81 nM. For the same compound, in experiment [4] (setting [6]), the EC50 was determined as 33 ± 35 nM.

As to `CCCCOc1nc(N)c2c(n1)N(Cc1cccc(CN3CCCC3)c1)CC(=O)N2` [Example 49], in experiment [1], the “CD69 Expression on CD3+CD4+ Lymphocytes, Mean Maximum Expression Background Subtracted” value is on record as 22%; the “CD69 Expression on CD3+CD4+ Lymphocytes, Maximum Expression (Actual %)” value is 59% and 39% and 24% and 25%; the “CD69 Expression on CD3+CD4+ Lymphocytes, Maximum Expression Background Subtracted” value is 21% and 20% and 23% and 24%. In experiment [2], the “CD69 Expression on CD3+CD8+ Lymphocytes, Mean Maximum Expression Background Subtracted” value was determined as 31%; the “CD69 Expression on CD3+CD8+ Lymphocytes, Maximum Expression (Actual %)” value was 55% and 43% and 35% and 32%; the “CD69 Expression on CD3+CD8+ Lymphocytes, Maximum Expression Background Subtracted” value is 31% and 29% and 33% and 30%. The “Donors with ≥2-fold HIV-1 Induction” value in experiment [3] (0.01 μM, Tables 7-11) is listed as 2 of 4. Moreover, in experiment [3] (0.1 μM), the “patients whose cultures showed two-fold or higher activation over the DMSO control” value is given as 4 of 6. In addition, the “Donors with ≥2-fold HIV-1 Induction” value in experiment [3] (0.1 μM, Table 6) was 3 of 6. In addition, the “Donors with ≥2-fold HIV-1 Induction” value in experiment [3] (0.156 μM, Tables 7-11) is given as 4 of 4. The “patients whose cultures showed two-fold or higher activation over the DMSO control” value in experiment [3] (1 μM) was 3 of 6. Also, the “Donors with ≥2-fold HIV-1 Induction” value in experiment [3] (1 μM, Table 6) is 4 of 6. Also, in experiment [3] (2.5 μM, Tables 7-11), the “Donors with ≥2-fold HIV-1 Induction” value is listed as 4 of 4. Moreover, in experiment [3] (10 μM), the “patients whose cultures showed two-fold or higher activation over the DMSO control” value is recorded as 1 of 4. The “Donors with ≥2-fold HIV-1 Induction” value in experiment [3] (10 μM, Table 6) is 1 of 4. Besides, in experiment [3] (Tables 7-11), the fold induction at 0.01 µM was determined as 4, the fold induction at 0.156 µM was determined as 6.7 and the fold induction at 2.5 µM was determined as 9.4. For the same compound, in experiment [3] (Table 6), the fold induction at 0.1 µM turned out to be 2.3, the fold induction at 1 µM was 2.8 and the fold induction at 10 µM worked out at 1.4. The EC50 in experiment [4] (setting [5]) is 4 to 691 nM. The concentration for a half-maximal effect (EC50) in experiment [4] (setting [6]) was found to be 170 ± 240 nM.
